{"source": "patent US20040048261A1", "about": "“Invertebrate choline transporter nucleic acids, polypeptides and uses thereof” (priority 2002, published 2004)", "origin": "cited, not measured here", "key": {"[1]": {"biological_target": "high-affinity, sodium-dependent system for choline uptake", "settings": "synaptosome studies, low choline concentrations"}, "[2]": {"biological_target": "low-affinity, sodium-independent system for choline uptake", "settings": "synaptosome studies, high choline concentrations, read-out: inhibition constant (Ki)"}}, "data": [{"smiles": "C[N+]1(C)CCOC(O)(c2ccc(-c3ccc(C4(O)C[N+](C)(C)CCO4)cc3)cc2)C1", "note": "(centres unmarked) [HC-3, hemicholinium-3]", "values": [{"measurement": "Ki", "setting": "[1]", "result": "0.01 to 0.1", "unit": "µM"}, {"measurement": "Ki", "setting": "[2]", "result": "~50", "unit": "µM"}]}]}
